Measurements from patent US20040197824A1, “Method for selective radioactive marking of peptides” (priority 2002, published 2004).

Tests used:
PTH1-receptor = PTH1-receptor (Homo sapiens, UniProt Q03431); assay: competitive binding study at PTH1-receptor; conditions: radio ligand concentration of 1 nM; FIG. 15
Y-receptor Y2 = biological target: T1, Y-receptor Y2 (Homo sapiens, UniProt P49146); assay: competitive binding studies at the Y2 receptor; conditions: FIG. 9
T1 sequence (P49146 1-381): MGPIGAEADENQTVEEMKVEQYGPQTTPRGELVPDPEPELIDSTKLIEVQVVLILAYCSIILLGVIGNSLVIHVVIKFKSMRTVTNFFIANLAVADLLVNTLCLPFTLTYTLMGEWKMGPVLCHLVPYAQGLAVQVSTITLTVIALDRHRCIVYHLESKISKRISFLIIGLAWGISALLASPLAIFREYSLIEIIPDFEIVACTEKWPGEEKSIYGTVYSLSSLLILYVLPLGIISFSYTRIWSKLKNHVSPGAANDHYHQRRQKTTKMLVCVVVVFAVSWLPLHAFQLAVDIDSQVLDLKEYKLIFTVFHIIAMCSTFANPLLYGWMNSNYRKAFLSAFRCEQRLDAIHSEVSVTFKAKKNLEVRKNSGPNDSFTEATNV
Description: (§1) The performance of the binding assays was performed as previously described.^(5)

Y-receptor Y5 = biological target: T2, Y-receptor Y5 (Homo sapiens, UniProt Q15761); assay: competitive binding studies at the Y5 receptor; conditions: FIG. 9
T2 sequence (Q15761 1-445): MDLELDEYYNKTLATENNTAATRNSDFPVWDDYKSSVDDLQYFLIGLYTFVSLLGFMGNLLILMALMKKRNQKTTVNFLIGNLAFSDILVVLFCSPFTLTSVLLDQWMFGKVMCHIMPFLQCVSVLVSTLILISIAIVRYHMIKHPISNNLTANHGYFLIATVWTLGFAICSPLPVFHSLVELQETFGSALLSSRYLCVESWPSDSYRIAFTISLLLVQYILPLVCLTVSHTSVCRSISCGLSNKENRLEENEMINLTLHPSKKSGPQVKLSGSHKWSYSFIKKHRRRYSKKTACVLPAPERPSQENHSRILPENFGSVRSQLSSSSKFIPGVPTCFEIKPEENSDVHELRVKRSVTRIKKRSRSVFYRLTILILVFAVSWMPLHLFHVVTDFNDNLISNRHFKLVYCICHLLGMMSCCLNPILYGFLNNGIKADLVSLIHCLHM
Description: as §1

Y-receptor Y1 = biological target: T3, Y-receptor Y1 (Homo sapiens, UniProt P25929); assay: competitive binding studies at the Y1 receptor; conditions: FIG. 9
T3 sequence (P25929 1-384): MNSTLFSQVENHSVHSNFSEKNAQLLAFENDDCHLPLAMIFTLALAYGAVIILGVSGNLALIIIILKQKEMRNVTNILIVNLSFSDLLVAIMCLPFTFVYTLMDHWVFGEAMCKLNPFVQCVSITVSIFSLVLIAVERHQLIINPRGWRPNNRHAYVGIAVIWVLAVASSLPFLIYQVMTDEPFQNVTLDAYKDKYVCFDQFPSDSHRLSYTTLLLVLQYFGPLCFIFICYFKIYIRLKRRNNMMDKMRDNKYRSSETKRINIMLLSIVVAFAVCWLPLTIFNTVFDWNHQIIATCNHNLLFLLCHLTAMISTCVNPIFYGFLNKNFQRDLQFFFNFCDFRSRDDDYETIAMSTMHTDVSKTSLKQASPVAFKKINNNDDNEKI
Description: as §1

PTH1-receptor, sequence (Q03431 27-593): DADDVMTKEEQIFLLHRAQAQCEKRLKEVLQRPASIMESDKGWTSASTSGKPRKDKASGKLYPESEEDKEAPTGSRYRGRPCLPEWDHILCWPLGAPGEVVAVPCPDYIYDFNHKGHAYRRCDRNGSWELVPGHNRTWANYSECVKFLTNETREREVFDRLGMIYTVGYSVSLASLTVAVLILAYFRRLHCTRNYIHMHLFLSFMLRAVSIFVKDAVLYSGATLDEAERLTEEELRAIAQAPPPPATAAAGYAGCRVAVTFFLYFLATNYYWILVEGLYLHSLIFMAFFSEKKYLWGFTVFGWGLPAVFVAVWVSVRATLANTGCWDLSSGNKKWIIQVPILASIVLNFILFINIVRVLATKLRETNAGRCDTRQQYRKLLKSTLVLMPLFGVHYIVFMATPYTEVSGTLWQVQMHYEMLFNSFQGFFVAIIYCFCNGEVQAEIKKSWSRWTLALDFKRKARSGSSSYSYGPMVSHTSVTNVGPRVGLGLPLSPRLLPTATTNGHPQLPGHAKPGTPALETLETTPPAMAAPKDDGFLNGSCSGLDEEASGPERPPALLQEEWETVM

## [3H]CC([3H])C(=O)NCCCC[C@H](NC(=O)CNC(=O)[C@H](CC(C)C)NC(=O)[C@H](CC(N)=O)NC(=O)[C@H](Cc1c[nH]cn1)NC(=O)[C@H](CCSC)NC(=O)[C@H](CC(C)C)NC(=O)[C@H](CCC(N)=O)NC(=O)[C@@H](NC(=O)[C@H](CCC(=O)O)NC(=O)[C@H](CO)NC(=O)[C@@H](NC(=O)[C@@H](N)CO)C(C)C)[C@@H](C)CC)C(=O)N[C@@H](Cc1c[nH]cn1)C(=O)N[C@@H](CC(C)C)C(=O)N[C@@H](CC(N)=O)C(=O)N[C@@H](CO)C(=O)N[C@@H](CCSC)C(=O)N[C@@H](CCC(=O)O)C(=O)N[C@@H](CCCNC(=N)N)C(=O)N[C@H](C(=O)N[C@@H](CCC(=O)O)C(=O)N[C@@H](Cc1c[nH]c2ccccc12)C(=O)N[C@@H](CC(C)C)C(=O)N[C@@H](CCCNC(=N)N)C(=O)N[C@@H](CCCCN)C(=O)N[C@@H](CCCCN)C(=O)N[C@@H](CC(C)C)C(=O)N[C@@H](CCC(N)=O)C(=O)N[C@@H](CC(=O)O)C(=O)N[C@H](C(=O)N[C@@H](Cc1c[nH]cn1)C(=O)N[C@@H](CC(N)=O)C(=O)N[C@@H](Cc1ccccc1)C(N)=O)C(C)C)C(C)C (stereo partly shown) [PTH (1-34)-amide marked at position 13, ^3H-proprionyl-Lys^13-PTH(1-34)-amide]
PTH1-receptor
  behavior in competitive binding relative to non-marked PTH (1-34)-amide: nearly identical behavior

## ^3H-proprionyl-Lys^4-NPY [^3H-NPY]
Y-receptor Y2
  behavior in competitive binding in comparison to commercially available ^3H-NPY: identical behavior
Y-receptor Y5
  behavior in competitive binding in comparison to commercially available ^3H-NPY: identical behavior
Y-receptor Y1
  behavior in competitive binding in comparison to commercially available ^3H-NPY: identical behavior
